# Values quoted from earlier work as cited in patent US20180185484A1, “PREPARATION AND USE OF PLATELET PRODUCTS” (Cerus Corporation, priority 2015, published 2018).
# Tested on: T lymphocytes
# Details: treated platelet preparations, after photoactivation; Grass et al., 1998
smiles,measurement,value
"Cc1oc2c(C)c3oc(=O)cc(C)c3cc2c1COCCN [amotosalen, 4′-(4-amino-2-oxa)butyl-4,5′,8-trimethylpsoralen]",reduction of viable T lymphocytes,greater than 5 logs
